The values that follow come from ChEMBL document CHEMBL4261651, “Probing the ligand preferences of the three types of bacterial pantothenate kinase” (Bioorg Med Chem, 2018).

The source made the active and inactive calls. The rule behind the calls is not given here. Some results are limits rather than exact numbers.

Test [1] relates to Escherichia coli. The test can be described thus: Inhibition of N-terminal His6-tagged Escherichia coli PanK1 expressed in Escherichia coli BL21(DE3) cells at 200 uM using pantothenate as substrate in presence of ATP by pyruvate kinase/lactate dehydrogenase enzyme coupled assay.
The target in test [2] is T1, Type III pantothenate kinase (Pseudomonas aeruginosa (strain ATCC 15692 / DSM 22644 / CIP 104116 /JCM 14847 / LMG 12228 / 1C / PRS 101 / PAO1)) (UniProt Q9HWC1).
T1 sequence (whole entry): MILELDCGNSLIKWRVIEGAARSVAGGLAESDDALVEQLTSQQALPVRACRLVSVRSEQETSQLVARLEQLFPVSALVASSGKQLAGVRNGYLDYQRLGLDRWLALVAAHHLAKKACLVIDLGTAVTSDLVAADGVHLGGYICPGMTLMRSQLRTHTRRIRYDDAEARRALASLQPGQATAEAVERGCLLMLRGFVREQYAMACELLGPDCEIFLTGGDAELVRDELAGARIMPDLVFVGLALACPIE
The test can be described thus: Inhibition of Pseudomonas aeruginosa PanK3 expressed in Escherichia coli BL21 Rosetta(DE3) cells at 200 uM using pantothenate as substrate in presence of ATP by pyruvate kinase/lactate dehydrogenase enzyme coupled assay.

Test [3] relates to Escherichia coli. The test can be described thus: Growth inhibition of Escherichia coli ATCC 25922 after 16 hrs by broth microdilution method. It is filed as functional, organism-based.
For test [4], the system named is Enterococcus faecium. The test can be described thus: Growth inhibition of Enterococcus faecium ATCC 19434 after 16 hrs by broth microdilution method. In kind it is functional, organism-based. A general note: Broth dilution looks for growth in wells or tubes with falling amounts of substance.
Test [5] has as its system Pseudomonas aeruginosa. The test can be described thus: Growth inhibition of Pseudomonas aeruginosa ATCC 27853 after 16 hrs by broth microdilution method. In kind it is functional, organism-based.
The test system of test [6] is Escherichia coli. The test can be described thus: Inhibition of N-terminal His6-tagged Escherichia coli PanK1 expressed in Escherichia coli BL21(DE3) cells at >= 100 uM using pantothenate as substrate in presence of ATP by pyruvate kinase/lactate dehydrogenase enzyme coupled assay.
Test [7] addresses T1, Type III pantothenate kinase (Pseudomonas aeruginosa (strain ATCC 15692 / DSM 22644 / CIP 104116 /JCM 14847 / LMG 12228 / 1C / PRS 101 / PAO1)). The test can be described thus: Inhibition of Pseudomonas aeruginosa PanK3 expressed in Escherichia coli BL21 Rosetta(DE3) cells at >= 100 uM using pantothenate as substrate in presence of ATP by pyruvate kinase/lactate dehydrogenase enzyme coupled assay.

In test [8] the target is T2, Type II pantothenate kinase (Staphylococcus aureus (strain MSSA476)) (UniProt Q6G7I0).
T2 sequence (whole entry): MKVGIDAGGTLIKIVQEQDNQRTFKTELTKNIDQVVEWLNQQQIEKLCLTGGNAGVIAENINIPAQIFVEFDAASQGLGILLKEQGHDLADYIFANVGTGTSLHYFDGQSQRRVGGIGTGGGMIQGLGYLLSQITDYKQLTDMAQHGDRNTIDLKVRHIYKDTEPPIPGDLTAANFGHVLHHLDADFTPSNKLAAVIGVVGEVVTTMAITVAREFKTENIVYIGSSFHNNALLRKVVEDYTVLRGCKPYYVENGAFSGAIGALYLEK
The test can be described thus: Inhibition of N-terminal His6-tagged Staphylococcus aureus PanK2 expressed in Escherichia coli BL21(DE3) cells at >= 100 uM using pantothenate as substrate in presence of ATP by pyruvate kinase/lactate dehydrogenase enzyme coupled assay.

Test [9] addresses T2, Type II pantothenate kinase (Staphylococcus aureus (strain MSSA476)). The test can be described thus: Substrate activity at N-terminal His6-tagged Staphylococcus aureus PanK2 expressed in Escherichia coli BL21(DE3) cells assessed as ratio of Kcat to Km in presence of ATP/NADH by pyruvate kinase/lactate dehydrogenase enzyme coupled assay.
In test [10] the test system is Escherichia coli. The test can be described thus: Substrate activity at N-terminal His6-tagged Escherichia coli PanK1 expressed in Escherichia coli BL21(DE3) cells assessed as Km in presence of ATP/NADH by pyruvate kinase/lactate dehydrogenase enzyme coupled assay.
In test [11] the test system is Escherichia coli. The test can be described thus: Substrate activity at N-terminal His6-tagged Escherichia coli PanK1 expressed in Escherichia coli BL21(DE3) cells assessed as Kcat in presence of ATP/NADH by pyruvate kinase/lactate dehydrogenase enzyme coupled assay.
The test system of test [12] is Escherichia coli. The test can be described thus: Substrate activity at N-terminal His6-tagged Escherichia coli PanK1 expressed in Escherichia coli BL21(DE3) cells assessed as ratio of Kcat to Km in presence of ATP/NADH by pyruvate kinase/lactate dehydrogenase enzyme coupled assay.

Regarding `COCC(C)(C)[C@@H](O)C(=O)NCCC(=O)O`, the inhibition result in [1] and in test [2] was “Active” each time. Moreover, the “growth inhibition (GI)” value in test [3], in test [4] and in [5] was “inactive” throughout.

Turning to `COCC(C)(C)[C@@H](OC)C(=O)NCCC(=O)O`, the “growth inhibition (GI)” value in test [3], in test [4] and in test [5] was “inactive” each time.

As for `CCCc1cn(CCCNC(=O)[C@H](O)C(C)(C)CO)nn1`, the inhibition result in [6], in test [7] and in test [8] was “inactive” in each case. Also, the Ratio in test [9] worked out at 21 mM⁻¹ s⁻¹. Besides, the “growth inhibition (GI)” value in test [3], in [4] and in test [5] was “inactive” each time.

Consider `CNCC(C)(C)[C@@H](O)C(=O)NCCC(=O)O`, for which the inhibition entry in test [1] and in test [2] was “Active” each time. For the same compound, the “growth inhibition (GI)” value in [3], in [4] and in test [5] was “inactive” throughout.

As for `CCCNCC(C)(C)[C@@H](O)C(=O)NCCC(=O)O`, the “growth inhibition (GI)” value in test [3], in test [4] and in test [5] was “inactive” each time.

In general, Km refers to the substrate concentration at which the rate is half of its maximum. What is called kcat is the number of substrate molecules converted per active site and unit of time at saturation. With `COC(=O)CNC(=O)[C@H](O)C(C)(C)CO`, the inhibition result in test [6], in test [7] and in test [8] was “inactive” each time. Also, in [10], the Km was 156 µM. The kcat in test [11] was found to be 0.91 s⁻¹. Further, the Ratio stood at 5.8 mM⁻¹ s⁻¹ in test [12] and 115 mM⁻¹ s⁻¹ in [9]. Moreover, the “growth inhibition (GI)” value in test [3], in test [4] and in test [5] was “inactive” in each case.

As to `CC(C)(CO)[C@@H](O)C(=O)NCc1cn(CCc2ccccc2)nn1`, the inhibition entry in test [6], in [7] and in [8] was “inactive” each time. In addition, the Michaelis constant (Km) in test [10] was determined as 25 µM. In test [11], the kcat stood at 1.09 s⁻¹. Besides, the Ratio in test [12] is 44 mM⁻¹ s⁻¹; in test [9] it was 37 mM⁻¹ s⁻¹. The “growth inhibition (GI)” value in test [3], in test [4] and in [5] was “inactive” in each case.

As for `CO[C@@H](C(=O)NCCC(=O)O)C(C)(C)CO`, the inhibition entry in test [6], in test [7] and in test [8] was “inactive” each time. In addition, the Km in test [10] came to 16 µM. The kcat in [11] came out at 0.49 s⁻¹. Also, the Ratio in test [12] turned out to be 31 mM⁻¹ s⁻¹. The “growth inhibition (GI)” value in test [3], in test [4] and in test [5] was “inactive” each time.

For the compound `CCCCCCCNCC(C)(C)[C@@H](O)C(=O)NCCC(=O)O`, the “growth inhibition (GI)” value in test [3], in test [4] and in test [5] was “inactive” throughout.

`CCCCCn1cc(CNC(=O)[C@H](O)C(C)(C)CO)nn1`: the inhibition entry in [6], in test [7] and in [8] was “inactive” in each case. Further, the Ratio in test [9] is 54 mM⁻¹ s⁻¹. For the same compound, the “growth inhibition (GI)” value in test [3], in test [4] and in [5] was “inactive” each time.

Regarding `CC(=O)CC(=O)OCC(C)(C)[C@@H](O)C(=O)NCCC(=O)O`, the “growth inhibition (GI)” value in test [3], in [4] and in test [5] was “inactive” in each case.

For the compound `CC(C)(CNCCc1ccccc1)[C@@H](O)C(=O)NCCC(=O)O`, the inhibition entry in test [1] is “Active”. Further, the “growth inhibition (GI)” value in [3], in test [4] and in [5] was “inactive” each time.

On to `CC(C)(CO)[C@@H](O)C(=O)NCC(=O)O`, for which the inhibition entry in [6], in test [7] and in [8] was “inactive” each time. Moreover, the Michaelis-Menten constant (Km) in [10] is 62 µM. The kcat in test [11] was determined as 1.59 s⁻¹. Also, the Ratio in test [12] was 26 mM⁻¹ s⁻¹. Also, the “growth inhibition (GI)” value in [3], in [4] and in test [5] was “inactive” each time.

Take `COC(=O)CCNC(=O)[C@H](O)C(C)(C)CO`: the inhibition result in test [6], in test [7] and in [8] was “inactive” throughout. The Km in test [10] was 292 µM. The kcat in test [11] amounted to 0.8 s⁻¹. Also, the Ratio in [12] came out at 2.7 mM⁻¹ s⁻¹; in test [9], 8.3 mM⁻¹ s⁻¹. Also, the “growth inhibition (GI)” value in [3], in [4] and in test [5] was “inactive” throughout.

As for `CCCCCn1cc(CCNC(=O)[C@H](O)C(C)(C)CO)nn1`, the inhibition entry in [6], in [7] and in test [8] was “inactive” throughout. In addition, in [10], the Michaelis-Menten constant (Km) turned out to be 33 µM. Also, the kcat in test [11] worked out at 0.72 s⁻¹. Moreover, the Ratio turned out to be 22 mM⁻¹ s⁻¹ in [12] and 107 mM⁻¹ s⁻¹ in test [9]. Besides, the “growth inhibition (GI)” value in test [3], in test [4] and in test [5] was “inactive” throughout.

For `COC(=O)CCCNC(=O)[C@H](O)C(C)(C)CO`, the inhibition result in test [6], in test [7] and in test [8] was “inactive” each time. For the same compound, the Ratio in test [9] turned out to be 7.1 mM⁻¹ s⁻¹. In addition, the “growth inhibition (GI)” value in test [3], in test [4] and in test [5] was “inactive” in each case.

Regarding `CCCCCNC(=O)CCNC(=O)[C@H](O)C(C)(C)CO`, the Ratio in test [9] is above 290 mM⁻¹ s⁻¹.

As to `CCCCCc1cn(CCNC(=O)[C@H](O)C(C)(C)CO)nn1`, the inhibition entry in [6], in [7] and in [8] was “inactive” each time. Also, in test [10], the Km came to 21 µM. Besides, the kcat in [11] is 1.11 s⁻¹. For the same compound, the Ratio in test [12] amounted to 53 mM⁻¹ s⁻¹; in test [9], 97 mM⁻¹ s⁻¹. Also, the “growth inhibition (GI)” value in test [3], in test [4] and in test [5] was “inactive” throughout.

Consider `CCCCn1cc(CCNC(=O)[C@H](O)C(C)(C)CO)nn1`, for which the inhibition entry in test [6], in [7] and in [8] was “inactive” throughout. For the same compound, the Km in [10] is 50 µM. For the same compound, the kcat in [11] amounted to 1.08 s⁻¹. The Ratio in test [12] was determined as 22 mM⁻¹ s⁻¹; in [9], 115 mM⁻¹ s⁻¹. The “growth inhibition (GI)” value in test [3], in test [4] and in test [5] was “inactive” each time.

In the case of `CCCCCNCC(C)(C)[C@@H](O)C(=O)NCCC(=O)O`, the inhibition entry in test [1] is “Active”. Further, the “growth inhibition (GI)” value in [3], in [4] and in [5] was “inactive” each time.
